Counter-ions that a name gives are not always drawn. Like-named read-outs stand apart in the source and are kept apart here.
Tests used:
[1] = biological target: T1, membrane TPP II (tripeptidyl peptidase II) (Rattus norvegicus, UniProt Q64560); experiment: Inhibition of AAF-Amc hydrolysis by cerebral membranes (inhibition of TPP II); type: biochemical; conditions: for Ki: rat cerebral cortex membranes; for activity (stated in words): stereoisomers not separated (2(R/S) mixture)
T1 construct: evaluated by measuring the activity of membrane TPP II; from tissue; host or cells: rat cerebral cortex membranes
T1 sequence (Q64560 whole entry): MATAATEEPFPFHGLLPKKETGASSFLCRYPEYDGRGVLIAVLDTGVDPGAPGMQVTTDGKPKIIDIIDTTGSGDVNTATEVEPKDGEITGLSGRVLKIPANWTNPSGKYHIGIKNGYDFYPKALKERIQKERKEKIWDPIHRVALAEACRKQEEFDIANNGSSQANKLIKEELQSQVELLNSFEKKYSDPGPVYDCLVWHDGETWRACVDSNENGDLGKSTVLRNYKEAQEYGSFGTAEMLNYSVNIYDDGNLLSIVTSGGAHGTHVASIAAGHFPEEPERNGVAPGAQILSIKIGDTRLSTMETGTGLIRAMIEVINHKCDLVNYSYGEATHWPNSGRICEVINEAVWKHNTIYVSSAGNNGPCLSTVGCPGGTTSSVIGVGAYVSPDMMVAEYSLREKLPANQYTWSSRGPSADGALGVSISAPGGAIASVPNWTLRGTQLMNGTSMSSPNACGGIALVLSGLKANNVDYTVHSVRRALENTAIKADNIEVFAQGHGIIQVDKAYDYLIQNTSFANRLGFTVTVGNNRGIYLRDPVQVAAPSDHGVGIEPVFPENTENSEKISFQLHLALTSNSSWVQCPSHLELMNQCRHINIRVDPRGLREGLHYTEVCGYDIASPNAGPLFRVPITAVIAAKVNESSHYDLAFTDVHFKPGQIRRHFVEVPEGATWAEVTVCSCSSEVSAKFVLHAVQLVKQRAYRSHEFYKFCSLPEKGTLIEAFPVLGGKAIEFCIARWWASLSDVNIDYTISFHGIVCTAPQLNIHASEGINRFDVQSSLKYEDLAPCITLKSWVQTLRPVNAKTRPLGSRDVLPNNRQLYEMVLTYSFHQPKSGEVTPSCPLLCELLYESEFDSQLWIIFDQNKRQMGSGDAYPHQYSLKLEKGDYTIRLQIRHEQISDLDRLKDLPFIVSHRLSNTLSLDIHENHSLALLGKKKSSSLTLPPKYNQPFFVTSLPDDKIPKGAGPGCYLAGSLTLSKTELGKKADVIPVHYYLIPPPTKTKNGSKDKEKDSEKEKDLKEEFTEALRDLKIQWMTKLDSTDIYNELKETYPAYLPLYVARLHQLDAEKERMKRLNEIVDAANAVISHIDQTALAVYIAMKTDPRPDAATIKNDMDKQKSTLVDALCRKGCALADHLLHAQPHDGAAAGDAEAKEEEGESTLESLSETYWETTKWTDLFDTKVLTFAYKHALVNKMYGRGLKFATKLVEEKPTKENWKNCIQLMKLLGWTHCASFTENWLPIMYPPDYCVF
Description: The potency of the compounds of the invention was evaluated by measuring the activity of membrane TPP II.
Membranes of rat cerebral cortex were obtained by centrifugation (200,000×g min) of a homogenate in 10 volumes of a 50 mM potassium phosphate buffer, pH 7.4.
The centrifugation pellet was carefully washed and taken up in a buffer containing 10% glycerol and 0.1% Brij 35 to obtain a concentration of 25 mg protein/ml.
After 25 minutes of preincubation, incubation is carried out in 0.1 ml of a buffer containing 0.1% Brij 35, […], 25 μg of membrane protein and 50 μm of substrate Ala-Ala-Phe-Amc (AAF-Amc). Liberation of 7-amino4-methylcoumarin (Amc) is evaluated by fluorimetry.

[2] = Table 1, substrate Ala-Ala-Phe-Amc, Ki calculated from 50% inhibition concentration and Km 23 μM, read-out: Ki (nM), Inhibition of AAF-Amc Hydrolysis by Cerebral Membranes
[3] = Table 2, comparative compounds known in the art, substrate AAF-Amc, read-out: Ki (nM), Inhibition of AAF-Amc Hydrolysis by Cerebral Membranes, comparative compound

| Compound | melting point [°C] | Ki [1, 2] [nM] | other results |
| --- | --- | --- | --- |
| CC[C@H](N)C(=O)C1c2c(ccc3ccccc23)N[C@@H]1C(=O)NCC(F)(F)F.O=C(O)C(F)(F)F (stereo partly shown) | 64 to 78 |  |  |
| CC[C@H](N)C(=O)N1c2ccc3c(c2CC1C(=O)NCC(F)(F)F)OCO3.O=C(O)C(F)(F)F (mixture of isomers) | 89 to 98 |  |  |
| CC[C@H](N)C(=O)N1c2ccc(Cl)cc2C[C@H]1C(=O)NCCCl.O=C(O)C(F)(F)F [Example 2, 1-(2(S)-Aminobutyryl)-5-chloroindoline-2(S)-carboxylic acid 2-chloroethylamide trifluoroacetate] | 80 to 88 | 1.7 |  |
| CC[C@H](N)C(=O)N1c2cccc(F)c2CC1C(=O)NCC(F)(F)F.O=C(O)C(F)(F)F (mixture of isomers) [Example 8, 1-(2(S)-aminobutyryl)-4-fluoroindoline-2(R/S)-carboxylic acid (2,2,2-trifluoroethyl)amide trifluoroacetate] [listing 1 of 2 here] | 57.5 to 58.5 |  |  |
| CC[C@H](N)C(=O)N1c2ccc(Cl)c(Cl)c2CC1C(=O)NCC(F)(F)F.O=C(O)C(F)(F)F (mixture of isomers) | 68 to 78 |  |  |
| CC[C@H](N)C(=O)N1c2ccc(Cl)cc2C[C@H]1C(=O)NCC(F)(F)F.O=C(O)C(F)(F)F [Example 1, 1-(2(S)-aminobutyryl)-5-chloroindoline-2(S)-carboxylic acid (2,2,2-trifluoroethyl)amide trifluoroacetate] | 34 to 35 | 0.4 |  |
| CC[C@H](N)C(=O)N1c2cccc(OC)c2C[C@H]1C(=O)NCC(F)(F)F.O=C(O)C(F)(F)F | 125 to 149 |  |  |
| CC[C@H](N)C(=O)N1c2ccccc2C[C@H]1C(=O)NCC1CC1.O=C(O)C(F)(F)F [Example 4, 1-(2(S)-aminobutyryl)-indoline-2(S)-carboxylic acid N-(cyclopropylmethyl)amide trifluoroacetate] | 57 to 74 |  |  |
| CC[C@H](N)C(=O)N1c2ccc(OC(F)(F)F)cc2CC1C(=O)NCC(F)(F)F (mixture of isomers) [Example 10, 1-(2(S)-aminobutyryl)-5-trifluoromethoxyindoline-2(R/S)-carboxylic acid (2,2,2-trifluoroethyl)amide trifluoroacetate] |  | 1.1 |  |
| CCCCNC(=O)C1Cc2cc(O)ccc2N1C(=O)[C@@H](N)CC (mixture of isomers) [C.C.4, 1-(2(S)-aminobutyryl)-5-hydroxyindoline-2(R/S)-carboxylic acid n-butylamide, reference compound] |  |  | Ki [1, 3]: 6.6 nM |
| CCCCNC(=O)[C@H]1Nc2ccc3ccccc3c2C1C(=O)[C@@H](N)CC.O=C(O)C(F)(F)F (stereo partly shown) | 76 to 88 |  |  |
| CC[C@H](N)C(=O)N1c2cccc(Cl)c2CC1C(=O)NCC(F)(F)F.O=C(O)C(F)(F)F (mixture of isomers) [Example 7, 1-(2(S)-aminobutyryl)-4-chloroindoline-2(R/S)-carboxylic acid (2,2,2-trifluoroethyl)amide trifluoroacetate] [listing 1 of 2 here] | 104 to 106 |  |  |
| CC[C@H](N)C(=O)N1c2cccc(F)c2CC1C(=O)NCC(F)(F)F.O=C(O)C(F)(F)F (mixture of isomers) [Example 8, 1-(2(S)-aminobutyryl)-4-fluoroindoline-2(R/S)-carboxylic acid (2,2,2-trifluoroethyl)amide trifluoroacetate] [listing 2 of 2 here] |  | 0.36 | activity (stated in words) [1]: useful activity |
| CCCCNC(=O)[C@@H]1Cc2cc(Cl)ccc2N1C(=O)[C@@H](N)CC [C.C.1, 1-(2(S)-aminobutyryl)-5-chloroindoline-2(S)-carboxylic acid n-butylamide, reference compound] |  |  | Ki [1, 3]: 2.5 nM |
| CC[C@H](N)C(=O)N1c2cccc(C)c2CC1C(=O)NCC(F)(F)F.O=C(O)C(F)(F)F (mixture of isomers) | 109 to 122 |  |  |
| CC[C@H](N)C(=O)N1c2ccc(OC)cc2CC1C(=O)NCC(F)(F)F.O=C(O)C(F)(F)F (mixture of isomers) [Example 9, 1-(2(S)-aminobutyryl)-5-methoxyindoline-2(R/S)-carboxylic acid (2,2,2-trifluoroethyl)amide trifluoroacetate] | 63.5 to 66 |  |  |
| CC[C@H](N)C(=O)N1c2ccc(OC)c(OC)c2CC1C(=O)NCC(F)(F)F.O=C(O)C(F)(F)F (mixture of isomers) | 79 to 87 |  |  |
| CC[C@H](N)C(=O)N1c2ccc(O)cc2CC1C(=O)NCC(F)(F)F (mixture of isomers) [Example 6, 1-(2(S)-aminobutyryl)-5-hydroxyindoline-2(R/S)-carboxylic acid (2,2,2,-trifluoroethyl)amide trifluoroacetate] |  | 2.8 | Ki ([1]; Table 2, compounds of the invention, substrate AAF-Amc, read-out: Ki (nM), Inhibition of AAF-Amc Hydrolysis by Cerebral Membranes, compound of the invention): 2.8 nM |
| CC[C@H](N)C(=O)N1c2cccc(Cl)c2CC1C(=O)NCC(F)(F)F.O=C(O)C(F)(F)F (mixture of isomers) [Example 7, 1-(2(S)-aminobutyryl)-4-chloroindoline-2(R/S)-carboxylic acid (2,2,2-trifluoroethyl)amide trifluoroacetate] [listing 2 of 2 here] |  | 0.56 | activity (stated in words) [1]: useful activity |
| CC[C@H](N)C(=O)N1c2ccc(OC)cc2CC1C(=O)NCC(F)(F)F (mixture of isomers) [Example 9, 1-(2(S)-aminobutyryl)-5-methoxyindoline-2(R/S)-carboxylic acid (2,2,2-trifluoroethyl)amide trifluoroacetate] |  | 0.7 |  |
| CCCCNC(=O)C1Cc2c(ccc(Cl)c2Cl)N1C(=O)[C@@H](N)CC.O=C(O)C(F)(F)F (mixture of isomers) | 115 to 124 |  |  |
| CCCCNC(=O)C1Cc2cc(OC)ccc2N1C(=O)[C@@H](N)CC (mixture of isomers) [C.C.5, 1-(2(S)-aminobutyryl)-5-methoxyindoline-2(R/S)-carboxylic acid n-butylamide, reference compound] |  |  | Ki [1, 3]: 8 nM |
| CC[C@H](N)C(=O)N1c2ccccc2C[C@H]1C(=O)NCCSC.O=C(O)C(F)(F)F [Example 3, 1-(2(S)-aminobutyryl)-indoline-2(S) carboxylic acid (2-methylthioethyl)amide trifluoroacetate] | 59.5 to 60.5 |  |  |

Source: patent US6335360B1, “Tripeptidyl peptidase inhibitors” (Institut National de la Sante et de la Recherche Medicale …, priority 1997, dated 2002)
